According to BigSolDB 2.1:

COC(=O)CC[C@H](N)C(=O)O
solubility (mole fraction)
Settings	283.15 K	288.15 K	293.15 K	298.15 K	303.15 K	308.15 K	313.15 K	318.15 K	323.15 K
in acetone	5.18e-05	9.7e-05	0.000148	0.000221	0.000292	0.000377	0.000438	0.000516	0.000572
in ethanol	0.000116	0.000147	0.000177	0.000212	0.000245	0.000272	0.000307	0.000348	0.000383
in isopropanol	8.34e-05	0.000104	0.000124	0.000144	0.000166	0.000196	0.000217	0.000245	0.000272
in methanol	0.00115	0.00122	0.0013	0.00138	0.00145	0.00152	0.00161	0.0017	0.00179
in n-propanol	1.38e-05	4.22e-05	7.7e-05	0.000116	0.000154	0.000208	0.000246	0.000289	0.000336
in water	0.0337	0.036	0.0394	0.0426	0.0457	0.0489	0.0523	0.0565	0.0608
